Measurements published in US9663476B2, “Glycine transporter-1 inhibitors” (AMGEN INC., priority 2006, dated 2017).
Where a name gives a salt, the structure may show the parent alone.

These compounds were tested against T1, human glycine transporter type 1 (Gly-T1) (Homo sapiens, UniProt P48067) (assay: Glycine Transporter 1 (GlyT1) uptake assay, [14C] glycine uptake in JAR cells). Settings: approximate IC50; inhibition of [14C] glycine (5 μM) uptake, JAR cells endogenously expressing human Gly-T1.
T1 construct: JAR) cells endogenously expressing human glycine transporter type 1 (Gly-T1); endogenous in cells; host or cells: JAR (human placental choriocarcinoma) cells
T1 sequence (P48067 1-706): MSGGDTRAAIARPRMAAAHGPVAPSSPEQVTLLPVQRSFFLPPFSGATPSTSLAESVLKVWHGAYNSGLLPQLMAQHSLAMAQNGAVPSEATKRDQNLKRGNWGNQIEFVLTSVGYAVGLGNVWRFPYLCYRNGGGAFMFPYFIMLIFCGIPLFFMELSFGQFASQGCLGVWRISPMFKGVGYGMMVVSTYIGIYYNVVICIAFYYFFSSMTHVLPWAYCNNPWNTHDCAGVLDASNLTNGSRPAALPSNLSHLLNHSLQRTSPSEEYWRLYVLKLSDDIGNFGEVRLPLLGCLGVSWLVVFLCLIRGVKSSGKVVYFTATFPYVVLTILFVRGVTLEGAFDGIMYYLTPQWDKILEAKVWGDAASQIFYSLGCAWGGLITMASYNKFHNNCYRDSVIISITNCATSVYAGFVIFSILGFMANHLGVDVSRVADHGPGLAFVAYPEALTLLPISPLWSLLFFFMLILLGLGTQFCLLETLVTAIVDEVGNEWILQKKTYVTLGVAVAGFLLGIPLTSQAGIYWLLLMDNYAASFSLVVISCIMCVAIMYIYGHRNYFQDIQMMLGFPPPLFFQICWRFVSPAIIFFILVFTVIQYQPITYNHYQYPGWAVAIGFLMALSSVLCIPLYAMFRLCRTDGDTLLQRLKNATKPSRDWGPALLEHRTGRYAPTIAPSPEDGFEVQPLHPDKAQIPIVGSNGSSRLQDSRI
Assay type: cell-based
Procedure: This cell-based assay measures the ability of test compounds to inhibit the uptake of glycine by the glycine transporter type 1. Human placental choriocarcinoma (JAR) cells endogenously expressing human glycine transporter type 1 (Gly-T1) were used for this assay. […] Cells were plated at a density of 4×10^4 cells/well and grown at 37° C. in a humidified atmosphere of 5% CO2 for 24 h.
Culture medium was removed from Cytostar plate and JAR cells were incubated with 30 μl of Uptake buffer (120 mM NaCl, 2 mM KCl, 1 mM CaCl2, 1 mM MgCl2, 10 mM Hepes, 5 mM alanine, pH 7.5) with or without compound for 5 min. […] After incubation at room temperature for the desired time usually 1-2 h, sealed 96-well Cytostar plates were counted on a TopCount (Packard).
IC50 curves were generated from the raw data collected from the TopCount and fitted with a four-parameter logistic equation using in-house data analysis tool, Activity Base.

| IC50 [nM] | Structure (SMILES) |
| --- | --- |
| 79.1 | O=C(O)CN1CCN([C@H](c2ccccc2)c2cccc(C(F)(F)F)c2)CC1 [Cpd 1, (R)-2-(4-(phenyl(3-(trifluoromethyl)phenyl)methyl)piperazin-1-yl)acetic acid] |
| 1.51 | C[C@@H]1CN([C@H](c2ccccc2)c2cccc(Br)c2)CCN1CC(=O)O [Cpd 20, 2-((R)-4-((R)-(3-bromophenyl)(phenyl)methyl)-2-methylpiperazin-1-yl)acetic acid dihydrochloride salt] |
| 3.94 | C[C@@H]1CN([C@H](c2ccccc2)c2cccc(C(F)(F)F)c2)CCN1CC(=O)O [Cpd 24, 2-((R)-2-methyl-4-((R)-phenyl(3-(trifluoromethyl)phenyl)methyl)piperazin-1-yl)acetic acid dihydrochloride salt] |
| 0.934 | C[C@@H]1CN([C@H](c2ccccc2)c2cccc(-c3ccccc3)c2)CCN1CC(=O)O [Cpd 30, [(R)-4-((R)-biphenyl-3-yl-phenyl-methyl)-2-methyl-piperazin-1-yl]-acetic acid] |
| 17.8 | Cc1cccc([C@@H](c2ccccc2)N2CCN(CC(=O)O)[C@H](C)C2)c1 [Cpd 34, 2-((R)-2-methyl-4-((R)-phenyl(m-tolyl)methyl)piperazin-1-yl)acetic acid] |
| 2.14 | Cc1cccc(-c2ccc([C@@H](c3ccccc3)N3CCN(CC(=O)O)[C@H](C)C3)cc2)c1 [Cpd 48, [(R)-2-methyl-4-[(R)-(3′-methyl-biphenyl-4-yl)-phenyl-methyl]-piperazin-1-yl]-acetic acid] |
| 7.2 | Cc1ccc(-c2ccc([C@@H](c3ccccc3)N3CCN(CC(=O)O)[C@H](C)C3)cc2)cc1 [Cpd 49, [(R)-2-methyl-4-[(R)-(4′-methyl-biphenyl-4-yl)-phenyl-methyl]-piperazin-1-yl]-acetic acid] |
| 1.5 | C[C@@H]1CN([C@H](c2ccccc2)c2ccc(C#Cc3ccccc3)cc2)CCN1CC(=O)O [Cpd 55A, 2-((R)-2-methyl-4-((R)-phenyl(4-(2-phenylethynyl)phenyl)methyl)piperazin-1-yl)acetic acid] |
| 41.1 | C[C@@H]1CN(C(c2cccc(C(F)(F)F)c2)C2CC2)CCN1CC(=O)O (stereo partly drawn) [Cpd 77, 2-((R)-4-(cyclopropyl(3-(trifluoromethyl)phenyl)methyl)-2-methylpiperazin-1-yl)acetic acid dihydrochloride salt] |
| 4.8 | C[C@@H]1CN(C(c2ccc(Cl)cc2)c2ccc(Cl)cc2)CCN1CC(=O)O [Cpd 78, (R)-2-(4-(bis(4-chlorophenyl)methyl)-2-methylpiperazin-1-yl)acetic acid] |
| 2200 | C[C@@H]1CN(C(c2ccc(Cl)cc2)c2ccc(Cl)cc2)CCN1[C@H](C)C(=O)O [Cpd 82, (R)-2-((R)-4-(bis(4-chlorophenyl)methyl)-2-methylpiperazin-1-yl)propanoic acid] |
